Measured values taken from patent US9937171B2, “Methods of blocking the CXCR-4/SDF-1 signaling pathway with inhibitors of bruton's tyrosine kinase” (Acerta Pharma B.V., priority 2014, dated 2018).

Columns and labels:
[1] = test system: RANK MDA-MB231; test: RANK MDA-MB231 mouse experiment (bone metastases, bioluminescence imaging); assay type: in vivo; conditions: ~10 and ~50 mg/kg/day PO, 2 weeks of treatment, FIG. 9
Description: FIG. 9 illustrates the results of a RANK MDA-MB231 mouse experiment. […] The primary endpoint was bioluminescence imaging (weekly). The secondary endpoints were serum CTx (bone resorption) and serum P1NP (bone formation).

[2] = test system: CXCR4 surface expression in B-CLL cells; test: CXCR4 surface expression in B-CLL cells of CLL patients after administration; assay type: in vivo, human; conditions: CLL patients with 17p deletion, blood 4, 24, 48 hours after day 3 dose
Protocol: Drug was given for 3 days. Blood was drawn predose, and then 4, 24, and 48 hours after the day 3 dose.

[3] = test system: p-Btk(Y223) in CD20+ B cells; test: Phosphoflow cytometry of p-Btk(Y223) in CD20+ B cell gate of healthy PBMCs; assay type: cell-based; conditions: 2 hours incubation, anti-IgM or anti-IgM+SDF-1 for 5 minutes, low nM concentrations, FIG. 1
Protocol: (§1) Cells were then analyzed by phosphoflow cytometry and p-Btk(Y223) was measured in the CD20+ B cell gate and the CD14^+ monocyte gate separately. In B cells, BTK phosphorylation in anti-IgM stimulated B cells is increased with the addition of SDF-1 (CXCL-12) in the “No drug” condition. […] In monocytes, BTK phosphorylation is only observed when SDF-1 is present.

[4] = test system: p-Btk(Y223) in CD14+ monocytes; test: Phosphoflow cytometry of p-Btk(Y223) in CD14+ monocyte gate of healthy PBMCs; assay type: cell-based; conditions: SDF-1 stimulation, FIG. 2
Protocol: as §1

Q: For `CC#CC(=O)N1CCC[C@H]1c1nc(-c2ccc(C(=O)Nc3ccccn3)cc2)c2c(N)nccn12` [Formula (II), (S)-4-(8-amino-3-(1-(but-2-ynoyl)pyrrolidin-2-yl)imidazo[1,5-a]pyrazin-1-yl)-N-(pyridin-2-yl)benzamide], which “Bone metastases (bioluminescence imaging)” value [1] is on record?
A: Its value is “dose-response reduction”.

Q: And the “CXCR4 surface expression in B-CLL cells compared to predose” value ([2]; 100 mg BID for 3 days, FIG. 3)?
A: Its value is “reduced”.

Q: What about the “CXCR4 surface expression in B-CLL cells compared to predose” value ([2]; 200 mg QD for 3 days, FIG. 4) of the same compound?
A: The value was “reduced”.

Q: And the “BTK phosphorylation, p-Btk(Y223), in B cells” value [3]?
A: The value was “inhibited”.

Q: And the “SDF-1/CXCR4 signaling (SDF-1 induced p-Btk) in monocytes” value [4]?
A: The value was “inhibits”.
